The values that follow come from ChEMBL document CHEMBL1201862, “PubChem BioAssay data set” (2004).

Test systems include A498; CCRF-CEM; DMS-114; DMS-273; HCC 2998; HOP-92; HT-29; KM12; LXFL 529; NCI-H226; NCI-H460; OVCAR-4; RPMI-8226; RXF 393; SK-MEL-2; SNB-19; SR; UACC-257; UACC-62; XF498.
Common to all, as to assay: NCI anticancer screen, dose series, 48 h

The structures appear in SMILES notation.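 Cultured in 96-well plates, cells were exposed to test compound for 48 hours across five concentrations. Abbreviation: GI50, concentration required for 50% inhibition of growth.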 Activity calls are given as the source filed them. Rule as the data show it: active = GI50 up to about 1.1 µM and inactive = higher. Bounds are passed on as bounds.

Regarding `CN(CCO)/N=N/c1[nH]cnc1C(N)=O`, the GI50 with A498 was > 100 µM (inactive); in the test on CCRF-CEM it was 21.5 µM (inactive); in the test on DMS-114 it was > 100 µM (inactive); in the test on DMS-273, 49.9 µM (inactive); with HCC 2998, > 100 µM (inactive); in the test with HOP-92, 77.8 µM (inactive). In addition, the GI50 in the test with HT-29, in the test with KM12, with LXFL 529, in the test on NCI-H226, with NCI-H460 and in the test with OVCAR-4 was > 100 µM (inactive) in each case. Also, the GI50 was > 100 µM (inactive) in the test on RPMI-8226; > 100 µM (inactive) with RXF 393; 22.5 µM (inactive) in the test with SK-MEL-2; > 100 µM (inactive) in the test on SNB-19; 39.7 µM (inactive) with SR; 99.8 µM (inactive) with UACC-257. Moreover, the GI50 in the test with UACC-62 is 83.8 µM (inactive); in the test on XF498 it was 82.2 µM (inactive).

Take `O=C(Nc1ccccc1)N1CCN(C(=O)Nc2ccccc2)C1=S`: the GI50 in the test on A498 is 0.0652 µM (active); in the test on CCRF-CEM it was 97.7 µM (inactive); in the test with HCC 2998, > 100 µM (inactive); with HOP-92, 29 µM (inactive); with HT-29 it was > 100 µM (inactive); in the test with KM12 it was > 100 µM (inactive). In addition, the GI50 is 28.1 µM (inactive) with NCI-H226; 65 µM (inactive) in the test with NCI-H460; 55.7 µM (inactive) with OVCAR-4; > 100 µM (inactive) in the test with RPMI-8226; 19.9 µM (inactive) in the test with RXF 393; > 100 µM (inactive) with SK-MEL-2. Also, the GI50 in the test on SR and in the test on UACC-257 was > 100 µM (inactive) each time.

For `COc1cc(C2c3cc4c(cc3[C@@H](Nc3ccccc3)C3COC(=O)[C@H]23)OCO4)cc(OC)c1O` (stereo not given in full), the GI50 with A498 was 0.221 µM (active); with CCRF-CEM it was 0.0279 µM (active); in the test on DMS-114, 0.687 µM (active); with DMS-273 it was 0.142 µM (active); in the test on HCC 2998 it was 1.23 µM (inactive); in the test on HOP-92, 0.857 µM (active). The GI50 in the test with HT-29 is 1.23 µM (inactive); in the test on KM12, 1.47 µM (inactive); with NCI-H226, 0.28 µM (active); in the test on NCI-H460, < 0.01 µM (active); in the test on OVCAR-4, 5.6 µM (inactive); with RPMI-8226, 0.234 µM (active). The GI50 with RXF 393 is 1.73 µM (inactive); in the test on SK-MEL-2, 2.79 µM (inactive); with SNB-19, 0.34 µM (active); with UACC-257, 0.615 µM (active); in the test on UACC-62 it was 0.388 µM (active); in the test with XF498, 1.03 µM (active).

As to `COC(=O)/C=C\n1ncc(=O)[nH]c1=O`, the GI50 in the test on A498 is > 100 µM (inactive); with HCC 2998 it was > 100 µM (inactive); with HOP-92 it was > 100 µM (inactive); in the test on HT-29, > 100 µM (inactive); with KM12, > 10 µM (inactive); in the test on NCI-H226, > 100 µM (inactive). In addition, the GI50 in the test on NCI-H460 was > 100 µM (inactive); in the test on OVCAR-4, > 100 µM (inactive); in the test on RPMI-8226 it was > 100 µM (inactive); with SK-MEL-2 it was > 100 µM (inactive); with SNB-19 it was > 100 µM (inactive); in the test with SR, > 10 µM (inactive). Further, in the test with UACC-257, the GI50 is > 100 µM (inactive).

On to `N#CCCN(CCC#N)c1ccc(/C=C(/NC(=O)Nc2ccccc2Cl)NC(=O)c2cc([N+](=O)[O-])ccc2Cl)cc1`, for which the GI50 in the test with CCRF-CEM was 17.3 µM (inactive); with DMS-114, > 100 µM (inactive); in the test on DMS-273, > 100 µM (inactive); in the test on HCC 2998 it was > 100 µM (inactive); in the test on HOP-92, > 100 µM (inactive); in the test with KM12, > 100 µM (inactive). The GI50 was > 100 µM (inactive) in the test on LXFL 529; > 100 µM (inactive) in the test on NCI-H226; > 100 µM (inactive) in the test with OVCAR-4; 52.4 µM (inactive) with RPMI-8226; > 100 µM (inactive) in the test with RXF 393; > 100 µM (inactive) in the test with SK-MEL-2. The GI50 in the test with SNB-19 was > 100 µM (inactive); in the test on SR, 42.4 µM (inactive); in the test with UACC-62, 57.8 µM (inactive); in the test on XF498, > 100 µM (inactive).

Regarding `Nc1nc(SCCC/C=C/I)nc2c1ncn2C1OC(COP(=O)(O)O)C(O)C1O` (stereo not given), the GI50 in the test with A498, in the test with CCRF-CEM, in the test on DMS-114, with DMS-273, in the test with HCC 2998 and in the test with HOP-92 was > 100 µM (inactive) in each case. In addition, the GI50 in the test on HT-29, with KM12, in the test with LXFL 529, with NCI-H226, in the test with NCI-H460 and with OVCAR-4 was > 100 µM (inactive) in each case. In addition, the GI50 in the test with RXF 393, with SK-MEL-2, in the test on SNB-19, with SR, with UACC-257 and in the test on UACC-62 was > 100 µM (inactive) in each case. The GI50 in the test with XF498 is > 100 µM (inactive).

As to `CCOC(=O)COc1ccc(OC)c2c1C(=O)CCC2`, the GI50 in the test with A498, in the test with CCRF-CEM, in the test with DMS-114, in the test with DMS-273, in the test with HT-29 and in the test on LXFL 529 was > 100 µM (inactive) throughout. Besides, the GI50 with NCI-H460 was > 100 µM (inactive); with OVCAR-4, > 100 µM (inactive); with RPMI-8226, > 100 µM (inactive); with RXF 393, > 100 µM (inactive); with SNB-19 it was 20 µM (inactive); with UACC-257, > 100 µM (inactive). For the same compound, the GI50 in the test on UACC-62 and with XF498 was > 100 µM (inactive) throughout.

`C=C(C)C1Cc2c(c3ccccc3n(C)c2=O)O1` (stereo not given): the GI50 in the test with A498 is > 100 µM (inactive); in the test on CCRF-CEM, > 100 µM (inactive); with DMS-114, > 100 µM (inactive); with HOP-92 it was 93.3 µM (inactive); in the test with HT-29 it was > 100 µM (inactive); in the test with LXFL 529, > 100 µM (inactive). Also, the GI50 with NCI-H226, in the test on NCI-H460, in the test on RPMI-8226, in the test with SK-MEL-2, in the test with SNB-19 and with UACC-62 was > 100 µM (inactive) throughout.

For `Cn1c(=O)c2nc(NCCO)cnc2n(C)c1=O`, the GI50 in the test on A498 was > 100 µM (inactive); in the test on CCRF-CEM, > 100 µM (inactive); with DMS-114 it was 64.1 µM (inactive); in the test on DMS-273 it was 53.6 µM (inactive); with HCC 2998, 64.6 µM (inactive); in the test with HOP-92, > 100 µM (inactive). Further, the GI50 with HT-29 was > 100 µM (inactive); in the test with KM12 it was 27.2 µM (inactive); in the test on LXFL 529, 36.5 µM (inactive); with NCI-H460, 59.7 µM (inactive); with OVCAR-4, 62.7 µM (inactive); in the test with RPMI-8226 it was 66.4 µM (inactive). Further, the GI50 in the test with RXF 393 is 35.6 µM (inactive); with SK-MEL-2, 26.6 µM (inactive); in the test with SNB-19 it was > 100 µM (inactive); in the test on SR, 42.8 µM (inactive); with UACC-257, > 100 µM (inactive); in the test on UACC-62 it was 37.8 µM (inactive). The GI50 with XF498 is 38.9 µM (inactive).

In the case of `CCOC(=O)c1csc(NC(=O)CN2CCN(c3ccccc3)CC2)n1`, the GI50 in the test with A498, in the test with CCRF-CEM, in the test with HCC 2998, in the test with HOP-92, with HT-29 and in the test with KM12 was > 100 µM (inactive) throughout. The GI50 in the test on NCI-H226 was > 100 µM (inactive); with NCI-H460 it was > 100 µM (inactive); in the test on OVCAR-4, 99.1 µM (inactive); in the test on RPMI-8226 it was > 100 µM (inactive); in the test with RXF 393 it was > 100 µM (inactive); in the test on SK-MEL-2 it was > 100 µM (inactive). The GI50 with SNB-19, in the test on SR, with UACC-257 and with UACC-62 was > 100 µM (inactive) each time.

For `CC(=O)Nc1ccc(Sc2nnc(NC(C)=O)s2)cc1`, the GI50 in the test on CCRF-CEM, in the test on HCC 2998, in the test on KM12, with NCI-H460, in the test with OVCAR-4 and with RPMI-8226 was > 100 µM (inactive) in each case. Besides, the GI50 with SNB-19, in the test on SR and in the test with UACC-257 was > 100 µM (inactive) each time.
